The values that follow come from article PMC12636382, “Human and zebrafish mineralocorticoid receptors reporter cell assays to assess the activity of chemicals” (iScience, 2025).

Usually EC50 stands for the concentration giving half of the maximal effect.

Holding throughout (assay type): cell-based
The target of assay [1] is T1, human MR (hMR) (Homo sapiens, UniProt P08235).
T1 construct: hMR(LBD) (G671-K894) and zfMR(LBD) (L668-K970) have been amplified by PCR; expressed in transfected cells
T1 sequence (P08235 671-984 limits assumed): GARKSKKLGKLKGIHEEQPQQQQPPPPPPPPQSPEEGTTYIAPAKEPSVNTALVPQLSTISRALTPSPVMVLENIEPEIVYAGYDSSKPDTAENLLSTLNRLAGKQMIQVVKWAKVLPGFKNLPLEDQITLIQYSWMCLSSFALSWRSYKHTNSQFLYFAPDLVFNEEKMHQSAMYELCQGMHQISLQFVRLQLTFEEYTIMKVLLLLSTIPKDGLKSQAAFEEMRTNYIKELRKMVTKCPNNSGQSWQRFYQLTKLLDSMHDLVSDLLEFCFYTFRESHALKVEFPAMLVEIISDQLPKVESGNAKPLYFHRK
Nature of the assay: UG5LN-GAL4-hMR luciferase reporter cell assay (agonism and antagonism tests). As for the experimental part:
(§1) The U2OS cells used to establish the MR reporter cell lines were obtained from and verified by ECACC (UK Health Security Agency, Porton Down, Salisbury, UK). The strategy used has been described previously to establish other NR-based cell lines.[42] First, the different pSG5-GAL4(DBD)-MRs (LBD) and (GAL4RE)5βGlob-Luc-SVNeo plasmids were tested by transient transfections in U2OS. Then, the UG5LN-GAL4-hMR and UG5LN-GAL4-zfMR clonal cells were generated in two steps. The first step was to establish clonal UG5LN cells by a stable transfection of U2OS cells, considered as steroid receptor negative, with the plasmid (GAL4RE)5βGlob-Luc-SVNeo. The second step consisted of the transfection of UG5LN cells with the plasmids pSG5-GAL4(DBD)-hMR(LBD)-puro, pSG5-GAL4(DBD)-hMRT870L(LBD)-puro or pSG5-GAL4(DBD)-zfMR(LBD)-puro, to generate UG5LN-GAL4-hMR, UG5LN-GAL4-hMRT870L and UG5LN-GAL4-zfMR clonal cells, respectively. Stable cell clones were selected in the presence of puromycin 0.5 μg/mL and G418 1 mg/mL. For each receptor, 5 to 10 clones were chosen for their ligand-induced luciferase expression. The clones were amplified and luciferase expression was checked at several passages. For each receptor, the clone with the best induction of luciferase activity was selected and used for the screening of the different chemicals. The stability and the inducibility of luciferase expression were checked during at least 20 passages (20 weeks).
(§2) To perform the reporter gene assay, cells were seeded in 96-wells white transparent culture plates (Greiner bio-one 655098CellStar; Dutscher, Brumath, France) at a density of 60,000 cells per well in 150 μL of culture medium and incubated at 37°C and 5% CO2 for 24 h. Then, after the attachment period, medium was removed and cells were exposed to increasing dilutions of the tested compounds in the experimental medium (DMSO; final concentration 0.1% v/v for chemicals and 0.3% v/v for water sample extracts) and incubated at 37°C and 5% CO2. After 24 h, medium was removed and replaced with 50 μL/well of experimental medium containing 0.3 mM luciferin. The luminescence signal was monitored in intact live cells for 2 s per well using a MicroBeta Wallac luminometer (PerkinElmer, Courtaboeuf, France). All experiments were performed in quadruplicate.
(§3) The quantification and statistical analysis are integral parts of the software used (GraphPad Prism 10, GraphPad Software Inc). The compounds were tested at different concentrations in at least three independent experiments. In each experiment, the compounds were tested in quadruplicate for each concentration, and the data were expressed as averages of the quadruplicates with their standard deviation to obtain a single value for that experimental series. Then, individual dose-response curves for each chemical were fitted from the averages of the three individual experiments using the sigmoidal dose-response function of the graphics and statistics software program GraphPad. Specifically, GraphPad employs nonlinear regression with the least squares method to fit the data to a sigmoidal function (based on the Hill equation). This method is used to determine the optimal parameter values, such as the Half Maximal Effective concentration (EC50) for agonist and the Half Maximal Inhibitory Concentration (IC50) for antagonist. […] Once the best-fit curve was obtained, the confidence intervals (e.g., 95% CI) for these parameters were estimated based on the uncertainty (variance) derived from the regression model, and the lower and upper 95% confidence limits of EC50s and IC50s were reported.
(In general: A reporter such as luciferase makes a cellular process visible.)

Assay [2] has as its system UG5LN cell line. Nature of the assay: UG5LN control cells (luciferase gene only, lacking MR), non-specific luciferase modulation. As to conditions: steroids at 10^−8 M and 10^−5 M, bimedrazol at 10^−8 M and 10^−6 M. From the text: In order to establish an MR reporter cell line, we selected the U2OS cell line, as it expresses low levels of steroid receptors, such as GR, which could have interfered with the results, as many steroids are agonists of both GR and MR. To investigate whether hMR and zfMR are similarly targeted by chemicals, we selected 18 natural and synthetic steroids and 13 ECs known or their anti-androgenic activity (Tables 1 and 2).
Data are presented as means ± SD values. n (replicates per experiment) = 4 per group.
To ensure that the effect of the chemicals is due to a direct and specific interaction with the MR (and not to a general effect on transcription for instance), we also tested these products in UG5LN cells (i.e., with the luciferase gene but lacking MR).

Assay [3] concerns the target zebrafish MR (zfMR) (Danio rerio, UniProt A6YIH7). Put plainly: UG5LN-GAL4-zfMR luciferase reporter cell assay (agonism and antagonism tests). As to conditions: UG5LN-GAL4-zfMR cells; for EC50: agonism test, chemical alone, mean of at least three experiments. As for the experimental part:
as §1, §2, §3

Where two headings read alike, the source gives them in different places.

Sequence of zebrafish MR (zfMR) (A6YIH7 entry or part of it): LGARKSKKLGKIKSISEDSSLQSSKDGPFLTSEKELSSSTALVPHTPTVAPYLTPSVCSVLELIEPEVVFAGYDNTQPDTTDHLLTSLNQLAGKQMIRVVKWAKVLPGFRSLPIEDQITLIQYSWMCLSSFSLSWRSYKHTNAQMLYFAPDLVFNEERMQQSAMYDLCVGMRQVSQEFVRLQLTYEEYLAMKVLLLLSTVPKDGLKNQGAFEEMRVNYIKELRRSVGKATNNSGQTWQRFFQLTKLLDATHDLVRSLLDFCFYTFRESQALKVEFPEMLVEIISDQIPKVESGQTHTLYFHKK

`C[C@]12CCC(=O)C=C1CC[C@@H]1[C@@H]2[C@@H](O)C[C@]2(C=O)[C@@H](C(=O)CO)CC[C@@H]12` [aldosterone]: in assay [1] (agonism test, % of maximal luciferase activity induced by 10^−8 M aldosterone, determined at 10^−5, 10^−6 or 10^−7 M depending on chemical (footnote)), the “% max act” value was determined as 100 ± 5%. Besides, in assay [1] (in words, UG5LN-GAL4-hMR cells), the “activity profile on hMR (agonist / partial agonist / antagonist)” value is on record as “full agonist”. Also, the “modulation of luciferase expression in UG5LN cell line” value in assay [2] is reported as “do not modulate luciferase expression”. The EC50 in assay [3] (read-out: EC50) was 0.3 nM. Also, in assay [3] (in words), the “activity profile on zfMR (agonist / partial agonist / antagonist)” value is “full zfMR agonists”.
In the case of bimedrazole, the EC50 entry was “not active” in assay [1] (agonism test, chemical alone, UG5LN-GAL4-hMR cells, mean of at least three experiments) and “unable to modulate luciferase expression” in assay [3]. The IC50 result in assay [1] (antagonism test, in presence of aldosterone 10^−9 M, UG5LN-GAL4-hMR cells) was “not able to decrease luciferase expression”; in assay [3] (antagonism test, in presence of aldosterone 0.5 10^−9 M), “unable to modulate luciferase expression”. Also, the “modulation of luciferase expression in UG5LN cell line” value in assay [2] is recorded as “do not modulate luciferase expression”.
